Source: patent publication US11971412B2, “Polypeptide-antibody complexes and uses thereof” (Mayo Foundation for Medical Education and Research, priority 2017, dated 2024)
Ends that are not written are not given here.

Experiments:
[1] = test system: CD20+ Daudi lymphoma cells; experiment: Flow cytometry staining of CD20+ Daudi lymphoma cells; format: cell-based; conditions: CD20+ Daudi lymphoma cells incubated 30 minutes at 4° C., washed with FACS buffer
Procedure: FIG. 1 is a series of scatter plots from flow cytometry studies using a polypeptide having the sequence […] (SEQ ID NO:3) that was labeled with QDs that emit at a wavelength of 565 nm, and complexed with a therapeutic antibody (rituximab). […] CD20+ Daudi lymphoma cells were incubated with isotype control, FITC-rituximab, peptide-QD only, peptide-QD+rituximab (10:1), and peptide-QD+rituximab (25:1) for 30 minutes at 4° C. After washing with FAGS buffer (PBS+0.5% BSA and 0.5% Na azide), the stained cells were analyzed by flow cytometry for recognition of CD20. The Daudi cells were 95% CD20+ (top left), 11.62% positive when stained with peptide-QD only (bottom left), and 57.02% and 61.31% positive with peptide-QD-rituximab at 10:1 and 25:1 (bottom center and bottom right, respectively).
The fluorescently labeled peptide was then bound to rituximab, trastuzumab, or atezolizumab and tested for binding to tumor cells expressing the pertinent tumor target. […] CD20+ Daudi lymphoma cells were incubated with isotype control, FITC-rituximab, polypeptide-QD only, polypeptide-QD-rituximab (10:1) complex, and polypeptide-QD-rituximab (25:1) complex for 30 minutes at 4° C. After washing with FACS buffer (PBS+0.5% BSA and 0.5% Na azide), the stained cells were analyzed by flow cytometry. […]

[2] = test system: SK-Br-3 (HER2/neu-positive) cells; experiment: Flow cytometry staining of HER2/neu-positive SK-Br-3 cells; format: cell-based
Procedure: FIG. 4 is a series of scatter plots from flow cytometry studies using SK-Br-3 (HER2/neu-positive) cells stained with a SEQ ID NO:3-QD-trastuzumab complex. The SK-Br-3 cells were incubated with isotype control antibody (top left), PE-anti-HER2 (top middle), SEQ ID NO:3-QD only (top right), and SEQ ID NO:3-QD-trastuzumab complex (bottom left). The cells were 84.7% positive for HER2/neu, 15.9% positive with SEQ ID NO:3-QD only and 68.9% positive with SEQ ID NO:3-QD-trastuzumab complex. A histogram representation of the data is included at the bottom right of the figure.
Additional experiments utilized HER2/neu-positive SK-Br-3 cells stained with polypeptide-QD bound to trastuzumab. The SK-Br-3 cells were incubated with isotype (FIG. 4, top left), PE-anti-HER2 (FIG. 4, top middle), polypeptide-QD only (FIG. 4, top right), and polypeptide-QD-trastuzumab complex (FIG. 4, bottom left). The cells were 84.7% positive for HER2/neu, 15.9% positive with polypeptide-QD only and 68.9% positive with the polypeptide-QD-trastuzumab complex. A histogram representation of the data is shown at the bottom right of […].

Row | Substance | Daudi cells positive by flow cytometry [1] [%] | SK-Br-3 cells positive by flow cytometry [2] [%]
1 | polypeptide-QD only: SEQ ID NO:3 polypeptide thiol-linked via SMCC crosslinker to PEG-coated Quantum Dots, without antibody (CGSGGGSVVLNQLCVLHEKTPVSDR; not fully specified (residue 1); also: Cys1 thiol linked via SMCC to PEG-coated quantum dot) | 11.62 | 15.9
2 | FITC-rituximab: FITC-labeled rituximab used as direct CD20 stain of Daudi cells [reference compound] | 95 | –
